Measurements reported in US20230076820A1, “Substituted Pyrazole Compounds and Methods of Using Them for Treatment of Hyperproliferative Diseases” (Bantam Pharmaceutical, LLC, priority 2016, published 2023).

Tested on: HCT116 cells
Test: Total glutathione levels (GSH-Glo), HCT116
Type: cell-based
Method: Measurement of glutathione levels following treatment using three cell lines: BJAB, HCT116, and normal human lung fibroblasts (NHLF) were maintained in RPMI (Wisent), McCoy’s (Wisent) or FGM-2 (Lonza) medium, respectively. For total glutathione measurement, 5000 cells /well (BJAB or HCT116) or 10,000 cells/well (NHLF) were transferred to clear-bottom 96-well assay plates (Thermo Fisher) in a volume of 50 µL. Plates were incubated overnight at 37° C. in 5% CO2, in an unsealed plastic bag with damp paper. Test compound was serially diluted in medium plus 0.4% DMSO, and 50 µL/well of each dilution was transferred to the assay plate. Assay plates were incubated at 37° C. in 5% CO2 in unsealed plastic bag with damp paper for the indicated time. For total glutathione measurement, GSH-Glo™ reagent (Promega) was prepared by diluting provided Luciferin-NT (1:100), Glutathione S-Transferase (1:100), and DTT (1 mM final) to GSH-Glo™ Reaction buffer, and 100 µL was added to assay plates, followed by 30 min incubation at room temperature, and then 100 µL Luciferin Detection Reagent was added. […] Luminescence was measured using Tecan Infinite 200Pro.
Effect on Glutathione levels: BJAB and HCT116 cells were maintained in RPMI medium (Wisent) or McCoy’s medium (Wisent), respectively. […] Total glutathione levels were determined according to the procedure described above.

With CC1=CC(=O)c2ccccc2C1=O [menadione, Menadione] the “glutathione levels after treatment” value (HCT116, FIG. 3) was “reduction in glutathione levels” and the “glutathione levels in the presence or absence of N-acetyl cysteine” value (HCT116, with or without N-acetyl cysteine, FIG. 3) was “N-acetyl cysteine in the media prevents the reduction of glutathione”.
